The values below come from ChEMBL document CHEMBL1131402, “Potent piperazine hydroxyethylamine HIV protease inhibitors containing novel P3 ligands” (Bioorg Med Chem Lett, 1998).

As a reminder, the EC50 is the concentration needed to bring the measured effect to its halfway point. For orientation: inhibition means the relative decrease from the control value, in per cent. A low value points to a response near the control. One may read the IC50 as the concentration at which inhibition is half-maximal.

Experiment [1] relates to Human immunodeficiency virus 1. Put plainly: Antiviral activity was assessed against K20K/R, 36M/I, 154V, A71A/V, V82T viral strains isolated from patient-129 pretreated with ritonavir(7 fold) at 16th week. It counts as functional, organism-based.
The target in experiment [2] is Human immunodeficiency virus type 1 protease (Human immunodeficiency virus 1) (UniProt Q72874). As to the kind of experiment: Inhibition of HIV protease at 0.5 nM.
Experiment [3] concerns Human immunodeficiency virus 1. Put plainly: Antiviral activity was assessed against K20K/R, M36M/I, 154V/I, L63L/P, V82/A viral strains isolated from patient-131 pretreated with ritonavir(7 fold) at 28th week. It counts as functional, organism-based.
Experiment [4] concerns Human immunodeficiency virus 1. As to the kind of experiment: Antiviral activity was assessed against I54I/V, A71V, V82A, L90L/M viral strains isolated from patient-235 pretreated with ritonavir (2 fold) at 36th week. Format: functional, organism-based.
Experiment [5] concerns Human immunodeficiency virus 1. Put plainly: Antiviral activity was assessed against M36I, I54V, A71V, V82T viral strains isolated from patient-129 pretreated with ritonavir(2 fold) at 8th week. Format: functional, organism-based.
Experiment [6] deals with MT4. Put plainly: Cytotoxicity against MT-4 cells was determined by using cytopathic effect assay. Format: functional, Homo sapiens. In general terms: Protection from cytopathic effect is a common read-out in antiviral testing.
The target of experiment [7] is Cytochrome P450 3A4 (Homo sapiens, UniProt P08684). As to the kind of experiment: […] inhibition of human liver microsomal Cytochrome P450 3A4. Format: ADME. A general note: Microsomes from liver hold many membrane-bound enzymes, among them those of drug oxidation.
Experiment [8] deals with Human immunodeficiency virus 1. As to the kind of experiment: Anti-HIV activity was determined in MT-4 cells in the presence of 50% human serum using cytopathic effect assay. The following applies: Human immunodeficiency virus 1, MT4, Serum. Format: functional, organism-based.
Experiment [9] has as its system Human immunodeficiency virus 1. As to the kind of experiment: Antiviral activity was assessed against M36M/I, I54I/V, V82F/A/S/T viral strains isolated from patient-313 pretreated with ritonavir(3 fold) at 85th day. It counts as functional, organism-based.
In experiment [10] the test system is Human immunodeficiency virus 1. Put plainly: Anti-HIV activity was determined in MT-4 cells in the presence of 0% human serum using cytopathic effect assay. Format: functional, organism-based. Conditions: Human immunodeficiency virus 1, MT4.
The test system of experiment [11] is Human immunodeficiency virus 1. Put plainly: Antiviral activity was assessed against M36M/I, V82F viral strains isolated from patient-313 pretreated with ritonavir(3 fold) at 57th day. It counts as functional, organism-based.

Cytochrome P450 3A4, sequence (P08684 whole entry): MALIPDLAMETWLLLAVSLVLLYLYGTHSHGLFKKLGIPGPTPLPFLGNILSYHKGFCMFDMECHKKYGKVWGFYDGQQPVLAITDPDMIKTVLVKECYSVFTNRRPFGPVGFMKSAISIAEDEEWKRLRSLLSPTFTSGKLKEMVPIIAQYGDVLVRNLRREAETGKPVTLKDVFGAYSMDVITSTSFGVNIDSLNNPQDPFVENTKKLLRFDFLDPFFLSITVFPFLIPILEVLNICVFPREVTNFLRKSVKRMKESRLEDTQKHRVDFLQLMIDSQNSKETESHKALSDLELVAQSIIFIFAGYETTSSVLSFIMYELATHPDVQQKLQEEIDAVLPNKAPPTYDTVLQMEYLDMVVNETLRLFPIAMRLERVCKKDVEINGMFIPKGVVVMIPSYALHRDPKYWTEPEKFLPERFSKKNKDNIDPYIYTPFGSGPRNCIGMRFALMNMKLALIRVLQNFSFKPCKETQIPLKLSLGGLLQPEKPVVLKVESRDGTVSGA

Regarding `CC(C)c1nc(COC(=O)N[C@H](C(=O)N[C@@H](Cc2ccccc2)[C@H](O)CN2CCN(Cc3ccc4c(c3)OCO4)C[C@H]2C(=O)NC(C)(C)C)C(C)C)cs1`, the EC50 was 33 nM in experiment [1]; 29 nM in experiment [3]; 24 nM in experiment [4]; 10 nM in experiment [5]; 40 nM in experiment [8]; 27 nM in experiment [9]. Besides, the EC50 in experiment [10] worked out at 7 nM; in experiment [11] it was 24 nM. Also, the inhibition in experiment [2] was determined as 60%. Besides, the CCIC50 in [6] came to 13 µM. Further, the IC50 in experiment [7] turned out to be 9600 nM.
